Where a SMILES comes first, the peptide text is derived from it. The star is where a group is joined. Cbz = O=C(OCc1ccccc1)*; CH2F = FC*
Assays:
[1] = test system: carbonyl adducts of proteins; assay: Protein carbonyl ELISA (oxidative retinal damage) after retinal detachment; assay type: in vivo; details: day three after retinal detachment, wild type
Experimental: Recent studies reported that RIP kinases regulate downstream ROS production during programmed necrosis (Cho Y S et al. (2009) CELL 137:1112-1123; Zhang D W et al. (2009) SCIENCE 325:332-336; Kim et al. (2007) MOL CELL 26:675-687). ELISA for carbonyl adducts of proteins was used to examine oxidative retinal damage following retinal detachment. Specifically, the amounts of protein carbonyls were determined by using OxiSelect™ Protein Carbonyl ELISA Kit (Cell Biolabs, San Diego, Calif.).

photoreceptors [2] = assay: TUNEL-positive photoreceptors in ONL after experimental retinal detachment; assay type: in vivo, rat; details: day three after retinal detachment; subretinal Z-VAD 300 μM and/or Nec-1 400 μM at detachment
photoreceptors [3] = assay: TEM quantification of apoptotic and necrotic photoreceptor death after retinal detachment; assay type: in vivo; details: day three after retinal detachment, ONL
Experimental: The morphology of photoreceptors after retinal detachment was examined by transmission electron microscopy (TEM) and propidium iodide (PI) staining and the effect of treatment with Z-VAD and/or a Nec-1 compound of Formula I-C was analyzed.
(§1) TEM was performed as previously described (Hisatomi T et al. (2008). J. CLIN. INVEST. 118:2025-2038). […] Over 200 photoreceptors each eye were photographed and subjected to quantification of cell death modes in a masked fashion. Photoreceptors showing cellular shrinkage and nuclear condensation were defined as apoptotic cells, while photoreceptors associated with cellular and organelle swelling and discontinuities in nuclear and plasma membrane were defined as necrotic cells. The presence of electron-dense granular materials were reported to occur subsequent to both apoptotic and necrotic cell death and cells with these findings were labeled simply as end-stage cell death/unclassified (Hisatomi T et al. (2003) AM. J. PATHOL. 162:1869-1879; Erickson P A et al. (1983) INVEST. OPHTHALMOL. VIS. SCI. 24:927-942).
On day three after retinal detachment, photoreceptor death caused by apoptosis was almost twice that caused by necrosis in vehicle-treated retina (% apoptotic cells: 21.7±1.3%, necrotic cells: 13.3±1.0%, unclassified: 4.4±1.4%; FIGS. 7A and 7E).

[4] = test system: CD11b-positive macrophage/microglia; assay: CD11b immunofluorescence after retinal detachment in WT mice; assay type: in vivo
Experimental: (§2) Immunofluorescence was performed as previously reported (Hisatomi et al. (2008) J CLIN INVEST 118:2025-2038. The enucleated eyes were frozen in OCT compound (Sakura Finetechnical Co., Tokyo, Japan). Five μm-thick sections were cut, air dried and fixed in cold acetone for 10 minutes. Rat anti-CD11b (1:50; BD Biosciences, San Diego, Calif.) was used as the primary antibody and incubated at 4° C. overnight. A nonimmune serum was used as a negative control. Alexa Fluor 594-conjugated goat anti-rat IgG (Invitrogen, Carlsbad, Calif.) was used as the secondary antibody and incubated at room temperature for one hour. The specimens were imaged by confocal microscopy using the Leica HCX APOL40× lens.
(§3) FIG. 11C-D show immunofluorescence for CD11b (FIG. 11C) and quantification of CD11b-positive macrophage/microglia (FIG. 11D) in WT and RIP-3−/− retina after retinal detachment.

photoreceptors [5] = assay: TEM quantification of photoreceptor death after retinal detachment in WT mice; assay type: in vivo; details: day three after retinal detachment
Experimental: as §1
The morphology of the RIP-3−/− retina after retinal detachment was also assessed by TEM. […] RIP-3 deficiency inhibits the switch to necrotic cell death by Z-VAD treatment and prevents photoreceptor death after retinal detachment. Scale bar, 5 μm.

[6] = test system: CD11b-positive macrophage/microglia; assay: CD11b immunohistochemistry after retinal detachment; assay type: in vivo; details: day three after retinal detachment
Experimental: Immunohistochemistry (IHC) was performed as previously reported (Murakami Y et al. (2008) AM J PATHOL 173:1326-1338). Rat anti-CD11b antibody (1:50; BD Biosciences, San Diego, Calif.) was used as the primary antibody. The specimens were imaged by confocal microscopy using the Leica HCX APOL40× lens.
(§4) Since the release of intracellular content in necrosis results in secondary inflammation, changes in the inflammatory response after retinal detachment were investigated by immunohistochemistry and immunofluorescence with an antibody against CD11b. FIG. 11A-B show IHC for CD11b (FIG. 11A) and quantification of CD11b-positive cells in control retina without retinal detachment and in retina treated with vehicle, Z-VAD or Z-VAD+Nec-1 (n=6 each) (FIG. 11B) at three days after retinal detachment. (*, P<0.05; **, P<0.01; NS, not significant; Scale bar, 50 μm).

[7] = test system: CD11b-positive macrophage/microglia; assay: CD11b-positive cell infiltration after retinal detachment in RIP-3−/− eyes; assay type: in vivo, RIP-3−/− mice
Experimental: as §2
as §4, with “(*, P<0.05; **, P<0.01; NS, not significant; Scale bar, 50 μm).” left out
as §3

photoreceptors [8] = assay: Normalized ONL thickness ratio after experimental retinal detachment; assay type: in vivo, rat; details: subretinal Z-VAD 300 μM and/or Nec-1 400 μM
Experimental: Photoreceptor death was also assessed by TUNEL analysis at three days after retinal detachment in retina treated with either vehicle, Nec-1, Z-VAD or Nec-1+Z-VAD. […] Nine sections for each eye specimen were randomly selected, and the central area of detached retina and the mid-peripheral region of attached retina were photographed. The ONL thickness ratio was measured at ten points in each section by masked observers. […] (GCL: ganglion cell layer, INL: inner nuclear layer. *, P<0.05. Scale bar, 100 μm). […]
TNF-α protein contents in rat retina were determined using ELISA Kit for rat TNF-α (Invitrogen, Carlsbad, Calif.). Goat anti-mouse/rat TNF-α blocking antibody was purchased from R&D Systems (Minneapolis, Minn.). The rat eyes were subretinally injected with 1% of sodium hyaluronate containing 0.1 mg/ml of anti-TNF-α antibody or control antibody.

photoreceptors [9] = assay: In vivo PI labeling of photoreceptors after retinal detachment in RIP-3−/− retinas; parameters: species or system RIP-3−/− mice; details: day 3 after retinal detachment
Experimental: In vivo propidium iodide (PI) staining was performed by injecting 5 μl of PI (50 μg/ml) into the subretinal space three days after retinal detachment. After two hours, the eyes were enucleated and 10 μm thick cryosections were cut, air-dried, and fixed in 100% ethanol. DAPI was used to counterstain the nuclei. The center of the detached retina was photographed by fluorescence microscope, and the number of PI-positive cells in ONL was analyzed by ImageJ software.
FIG. 8C-D show PI staining (FIG. 8C) and quantification of PI-positive photoreceptors (FIG. 8D) on day 3 after retinal detachment in retina treated with vehicle, Z-VAD or Nec-1 (a Nec-1 of Formula I-C) and Z-VAD in RIP-3−/− retina (n=5-6; C and D). *, P<0.05; **, P<0.01. Scale bar, 100 μm.

SMILES: COC(=O)CC(NC(=O)C(C)NC(=O)C(NC(=O)OCc1ccccc1)C(C)C)C(=O)CF (stereo not drawn) [Z-VAD, Benzyloxycarbonyl-Val-Ala-Asp(OMe)-fluoromethylketone] (Cbz-Val-Ala-Asp(OMe)-CH2F; configuration not given here)
- carbonyl contents per mg protein [1]: significant increase of carbonyl contents
- number of TUNEL-positive cells in the ONL (photoreceptors [2]): 1134.7±297.5 cells/mm^2
- % apoptotic cells (TEM) (photoreceptors [3]): 11.4±1.2%
- % necrotic cells (TEM) (photoreceptors [3]): 21.9±2.3%
- % unclassified (end-stage cell death, TEM) (photoreceptors [3]): 5.6±1.4%
- infiltration of CD11b-positive cells (immunofluorescence) [4]: significantly increased infiltration
- % apoptotic cells (TEM) (photoreceptors [5]): 13.3±1.5%
- % necrotic cells (TEM) (photoreceptors [5]): 22.1±1.0%
- % unclassified (TEM) (photoreceptors [5]): 1.0±0.6%
- infiltration of CD11b-positive cells in the retina [6]: 514.7±54.5 cells/mm^2
- infiltration of CD11-b positive cells in the retina and subretinal space [7]: even less infiltration
- normalized ONL thickness ratio (photoreceptors [8]; five days after retinal detachment): 0.54±0.10
- normalized ONL thickness ratio (photoreceptors [8]; three days after retinal detachment): 0.72±0.08
- number of photoreceptors with disrupted plasma membrane (in vivo PI-labeling) (photoreceptors [9]): not increased

From patent US10639345B2, “Compositions for preserving photoreceptor cells, retinal pigment epithelial cells, or visual function” (Massachusetts Eye and Ear Infirmary, priority 2010, dated 2020)
